In patent publication US20250075190A1, “DE NOVO DESIGNED LUCIFERASE” (UNIVERSITY OF WASHINGTON, priority 2022, published 2025):

Key:
Assay type in all cases: biochemical
[1] = system: LuxSit-i (de novo designed luciferase; LuxSit variant R60S/A96L/M110V, 60S/96L/98H/110V; SEQ ID NO:2); assay: Michaelis-Menten kinetics of LuxSit-i with DTZ; details: substrate DTZ; for Km / Vmax: Tris pH 8.0
Text: (§1) Synthetic genes and oligonucleotides were purchased from Integrated DNA Technologies or GenScript. The synthetic gene was inserted between NdeI and XhoI sites of a pET29b+ vector, containing an N-terminal hexahistidine tag followed by a TEV protease cleavage site and a C-terminal stop codon. Restriction endonucleases, Q5 PCR polymerase, and T4 ligase were purchased from NEB. Plasmid DNA, PCR products, or digested fragments were purified by Qiagen DNA purification kits. DNA sequences were analyzed by Genewiz. Coelenterazine (CTZ) was purchased from Gold Biotechnology. Diphenylterazine (DTZ), pyridyl diphenylterazine (8pyDTZ), and Furimazine (FRZ) were purchased from MedChemExpress. All other coelenterazine analogs (bis-CTZ: bisdeoxycoelenterazine; f-CTZ: f-Coelenterazine; e-CTZ: e-Coelenterazine-F; PP-CTZ: methoxy e-Coelenterazine; v-CTZ: v-Coelenterazine. All other chemicals were purchased from Sigma-Aldrich or Fisher Scientific and used without further purification. To identify the molecular mass of each protein, intact mass spectra were obtained via reverse-phase LC/MS on an Agilent 6230B TOF on an AdvanceBio RP-Desalting column and subsequently deconvoluted by Bioconfirm software using a […] algorithm. AKTA pure M with UNICORN 6.3.2 Workstation control (GE Healthcare) coupled with a Superdex™ 75 Increase 10/300 GL column was used for size exclusion chromatography. DNA and protein concentrations were determined by a NanoDrop™ small-volume 8 channel UV/vis spectrometer. CD spectra and CD melting experiments were performed by the default setting on a J-1500 Circular Dichroism Spectropolarimeter (Jasco). All luminescence measurements were acquired by a Biotek Synergy Neo2T™ Multi-Mode Plate Reader. To convert relative arbitrary unit (RLU) to the number of photons, Neo2 plate reader was calibrated by determining the chemiluminescence of luminol with known quantum yield in the presence of horseradish peroxidase and hydrogen peroxide in K2CO3 aqueous solution as previously described^45. SDS PAGE and luminescence images were captured by a Bio-Rad ChemiDocT™ XRS+. Images were analyzed using the Fiji image analysis software.
(§2) Lemo21(DE3) strain was used for transformation with the pET29b+ plasmid encoding the gene of interest. Transformed cells were grown for 12 h in TB medium supplemented with kanamycin. Cells were inoculated at 1:50 ratio in 100 mL fresh TB medium, grown at 37° C. for 4 h, and then induced by IPTG for an additional 18 h at 16° C. Cells were harvested by centrifugation at 4,000 g for 10 min and resuspended in 30 mL lysis buffer (20 mM Tris-HCl pH 8.0, 300 mM NaCl, 30 mM imidazole, and Pierce™ Protease Inhibitor Tablets). Cell resuspensions were lysed by sonication for 5 min (10 s per cycle). Lysates were clarified by centrifugation at 24,000 g at 12° C. for 40 min and pre-equilibrated with 1 mL of Ni-NTA nickel agarose at 4° C. for 1 h. The resin was washed twice with 10 mL wash buffer and then eluted in 1 mL elution buffer (20 mM Tris-HCl pH 8.0, 300 mM NaCl, 300 mM imidazole). The eluted proteins were purified by size exclusion chromatography in PBS. Fractions were collected based on A280 trace, snap-frozen in liquid nitrogen, and stored at −80° C.,
(§3) To create libraries of each single amino acid substitution at residues 13, 14, 17, 18, 35, 37, 38, 49, 52, 53, 56, 60, 65, 81, 83, 94, 96, 98, 100, 110, and 112, forward oligos mixture with degenerate codons (NDT, VHG, and TGG=1:1:0.1 ratio) and an overlapped reverse oligo were used to amplify the plasmid of LuxSit. The resulting PCR products were circularized by Gibson Assembly protocol and were subsequently used to transform ElectroMAX™ DH10B Cells. The cells were plated on 150 mm×15 mm LB agar plates supplemented with carbenicillin and L-arabinose, incubated at 37° C. overnight, and left at 4° C. for another 24 h. As described in the screening of luciferase libraries, colony-based screening by spraying DTZ solution was used to identify active colonies. […]. […]

[2] = system: LuxSit-f (de novo designed luciferase; LuxSit variant A96M/M110V, 60R/96M/98H/110V; SEQ ID NO:3); assay: Michaelis-Menten kinetics of LuxSit-f with DTZ; details: substrate DTZ; for Km / Vmax: Tris pH 8.0
Text: as §1, §2, §3

[3] = system: LuxSit (de novo designed luciferase, parent, 60R/96A/98H/110M; SEQ ID NO:1); assay: Michaelis-Menten kinetics of LuxSit (parent) with DTZ; details: substrate DTZ; mean (95% CI), n = 3; Tris pH 8.0
Text: (§4) Synthetic genes and oligonucleotides were purchased from Integrated DNA Technologies or GenScript. The synthetic gene was inserted between NdeI and XhoI sites of a pET29b+ vector, containing an N-terminal hexahistidine tag followed by a TEV protease cleavage site and a C-terminal stop codon. Restriction endonucleases, Q5 PCR polymerase, and T4 ligase were purchased from NEB. Plasmid DNA, PCR products, or digested fragments were purified by Qiagen DNA purification kits. DNA sequences were analyzed by Genewiz. Coelenterazine (CTZ) was purchased from Gold Biotechnology. Diphenylterazine (DTZ), pyridyl diphenylterazine (8pyDTZ), and Furimazine (FRZ) were purchased from MedChemExpress. […] DNA and protein concentrations were determined by a NanoDrop™ small-volume 8 channel UV/vis spectrometer. […] All luminescence measurements were acquired by a Biotek Synergy Neo2T™ Multi-Mode Plate Reader. To convert relative arbitrary unit (RLU) to the number of photons, Neo2 plate reader was calibrated by determining the chemiluminescence of luminol with known quantum yield in the presence of horseradish peroxidase and hydrogen peroxide in K2CO3 aqueous solution as previously described^45. SDS PAGE and luminescence images were captured by a Bio-Rad ChemiDocT™ XRS+. Images were analyzed using the Fiji image analysis software. […]

[4] = system: LuxSit (de novo designed luciferase, SEQ ID NO:1) variant Y14E; assay: Michaelis-Menten kinetics of LuxSit Y14E with DTZ; details: substrate DTZ; mean (95% CI), n = 3; Tris pH 8.0
Text: as §4

[5] = system: LuxSit (de novo designed luciferase, SEQ ID NO:1) variant R60C; assay: Michaelis-Menten kinetics of LuxSit R60C with DTZ; details: substrate DTZ; mean (95% CI), n = 3; Tris pH 8.0
Text: as §4

[6] = system: LuxSit (de novo designed luciferase, SEQ ID NO:1) variant A96I; assay: Michaelis-Menten kinetics of LuxSit A96I with DTZ; details: substrate DTZ; mean (95% CI), n = 3; Tris pH 8.0
Text: as §4

[7] = system: LuxSit (de novo designed luciferase, SEQ ID NO:1) variant A96M; assay: Michaelis-Menten kinetics of LuxSit A96M with DTZ; details: substrate DTZ; mean (95% CI), n = 3; Tris pH 8.0
Text: as §4

[8] = system: LuxSit (de novo designed luciferase, SEQ ID NO:1) variant H98N; assay: Michaelis-Menten kinetics of LuxSit H98N with DTZ; details: substrate DTZ; mean (95% CI), n = 3; Tris pH 8.0
Text: as §4

[9] = system: LuxSit (de novo designed luciferase, SEQ ID NO:1) variant M110C; assay: Michaelis-Menten kinetics of LuxSit M110C with DTZ; details: substrate DTZ; mean (95% CI), n = 3; Tris pH 8.0
Text: as §4

Compound: O=c1c(Cc2ccccc2)nc2c(-c3ccccc3)[nH]c(-c3ccccc3)cn1-2 [DTZ, Diphenylterazine]
- apparent Michaelis constant KM ([1]; in words (FIG. 3a)): low μM range
- Km ([1]; 100 nM enzyme, Table 3): 2.5 µM
- Vmax ([1]; 100 nM enzyme, Table 3): 0.36 photon s^−1 molecule^−1
- kcat ([1]; kcat=Vmax/LQY, Table 3): 2.5 s⁻¹
- Km ([1]; mean (95% CI), n = 3, Table 4): 2.5 µM
- Vmax ([1]; mean (95% CI), n = 3, Table 4): 36.1(33.7-38.6) ×10^−2 photon s^−1 molecule^−1
- apparent Michaelis constant KM ([2]; in words (FIG. 3a)): low μM range
- Km ([2]; 100 nM enzyme, Table 3): 8.9 µM
- Vmax ([2]; 100 nM enzyme, Table 3): 0.20 photon s^−1 molecule^−1
- kcat ([2]; kcat=Vmax/LQY, Table 3): 1.8 s⁻¹
- Km ([2]; mean (95% CI), n = 3, Table 4): 8.9 µM
- Vmax ([2]; mean (95% CI), n = 3, Table 4): 19.7(17.9-21.9) ×10^−2 photon s^−1 molecule^−1
- Km [3]: 18.3 µM
- Vmax [3]: 0.32(0.29-0.37) ×10^−2 photon s^−1 molecule^−1
- Km [4]: 12.6 µM
- Vmax [4]: 0.19(0.17-0.21) ×10^−2 photon s^−1 molecule^−1
- Km [5]: 45.2 µM
- Vmax [5]: 0.57(0.44-0.8) ×10^−2 photon s^−1 molecule^−1
- Km [6]: 17.5 µM
- Vmax [6]: 1.3(1.1-1.5) ×10^−2 photon s^−1 molecule^−1
- Km [7]: 4.8 µM
- Vmax [7]: 6.0(5.3-6.9) ×10^−2 photon s^−1 molecule^−1
- Km [8]: 29.3 µM
- Vmax [8]: 0.17(0.15-0.2) ×10^−2 photon s^−1 molecule^−1
- Km [9]: 67.5 µM
- Vmax [9]: 0.4(0.3-0.6) ×10^−2 photon s^−1 molecule^−1
